Laboratory results reported in patent publication US6316423A, “Method of treating ischemic, hypoxic and anoxic brain damage” (priority 1999, dated 2001).

Tests used:
[1] = test system: microtubule associated protein 2 (MAP-2); assay: MAP-2 preservation in CA1 after 10 minute ischemia, postischemic ADAC; type: in vivo, gerbil; details: 100 μg/kg at 2, 6 or 12 h postischemia
Source text: Animals were allowed to survive either 2 or 7 days. They were then perfused with a freshly made 3.5 solution of paraformaldehyde in phosphate buffered saline (pH 7.4). After removal, brains were cut at 40 μm, and the sections were stained immunohistochemically with a monoclonal MAP-2 antibody (Sigma) diluted 1:500-1000. Standard peroxidase anti-peroxidase procedure of ABC complex with Vector kit (Hsu et al., 1981) intensified with heavy metal (Adams, 1981) was used. For immunofluorescent studies, the sections were incubated at 4° C. with the primary antibody overnight. Following three 5-10 minute washes, the sections were exposed to the secondary antibodies, i.e., fluorescein isothiocyanate, rhodamine isothiocyanate, and Texas Red conjugated goat anti-mouse IgG. The secondary antibodies were diluted at 1:20-100 in 0.1M phosphate buffer. Qualitative morphological and immunostaining characteristics of the sections were studied using an epifluorescent microscope (Nikon Labophot) equipped with filters (Nikon B2 and Nikon G1B) appropriate for the detection of the secondary antibodies.
Quantitative analysis of MAP-2 presence in the dendritic fields of CA1 was made using a computer image analysis system (Biographics Inc., Winston-Salem, N.C.).

[2] = Cardiovascular effects and body temperature of ADAC in nonischemic (normoxic) gerbils; type: in vivo, gerbil; details: for Blood pressure / Cardiac rate: 100 μg/kg ADAC, ± SEM
Source text: Blood pressure was monitored using a Harvard Apparatus (South Natick, Mass.) rat tail blood pressure monitor (von Lubitz et al., 1994 supra), while a Silogic EC-60 cardiac and respiratory monitor (Stewartstown, Pa.) was used to measure cardiac rate. EEG clip electrodes were attached to the unshaven loose skin of the armpits and to both thighs saturated with EEG gel.

[3] = test system: gerbils exposed to 10 minutes of brain ischemia; assay: Dose-response of preischemic ADAC on survival after 10 minutes of ischemia; type: in vivo, gerbil; details: 15 min preischemia, control 40%
Source text: This higher selectivity results in lower quantities of drug administration required for maximum neuroprotection. Lower administered quantities in turn, result in attenuation or elimination of side-effects.

[4] = test system: gerbils exposed to 10 minutes of brain ischemia; assay: Chronic ADAC treatment followed by 10 minutes of ischemia; type: in vivo, gerbil; details: 0.025, 0.050 or 0.075 mg for 60 days, one day rest
Procedure: The gerbils were then subjected to 10 minutes of brain ischemia and allowed to recover.

[5] = target: Rat A2 adenosine receptor; assay: Affinity for A2 adenosine receptor isolated from rats; type: binding; details: rat A2 adenosine receptors; read-out: Ki for Rat A2 Receptors (printed K1)
Source text: Table 3 below indicates the structure and Ki values for these compounds. Thus, each of these compounds is expected to find utility in the context of the present invention. The five analogues indicated within Table 3 are given for the purposes of illustrating the nature of ADAC-analogues and is not meant to be comprehensive. Additionally, these compounds can be synthesized using a similar approach as the one employed for ADAC. These methods are known in the art. For example, the synthesis of these compounds can be guided by U.S. Pat. No. 5,248,770 or by Jacobson et al., Journal of Medicinal Chemistry, 28, 1341-1346 (1985).

NCCNC(=O)Cc1ccc(NC(=O)Cc2ccc(Nc3ncnc4c3ncn4[C@@H]3O[C@H](CO)[C@@H](O)[C@H]3O)cc2)cc1 [ADAC]
loss of MAP-2 density in CA1 ([1]; 2 days after ischemia, control 50% loss): no loss | decrease of MAP-2 density in CA1 ([1]; 7 days after occlusion): approximately 15% | Blood pressure ([2]; 5 min post injection): 83 ± 1 mm Hg | Cardiac rate ([2]; 5 min post injection): 385 ± 6 beats/min | Blood pressure ([2]; 15 min post injection): 81 ± 1 mm Hg | Cardiac rate ([2]; 15 min post injection): 382 ± 7 beats/min | Blood pressure ([2]; 30 min post injection): 82 ± 2 mm Hg | Cardiac rate ([2]; 30 min post injection): 383 ± 8 beats/min | Blood pressure ([2]; 60 min post injection): 80 ± 2 mm Hg | Cardiac rate ([2]; 60 min post injection): 383 ± 6 beats/min | changes of body temperature ([2]; 100 μg/kg, nonischemic gerbils): did not cause any significant changes | changes of cardiac rate ([2]; 100 μg/kg, nonischemic gerbils): did not cause any significant changes | changes of mean arterial blood pressure ([2]; 100 μg/kg, nonischemic gerbils): did not cause any significant changes | bradycardia, hypotension, or decreased cerebral (cortical) blood flow ([2]; 0.1 mg/kg intraperitoneal, normoxic gerbils, within 120 minutes): not accompanied by a statistically significant bradycardia, hypotension, or decreased cerebral (cortical) blood flow | cardiovascular effects at higher concentrations ([2]; 0.3 mg/kg and beyond, within 30 minutes of administration): manifests cardiovascular effects within 30 minutes of administration of 0.3 mg/kg and beyond | survival rate ([3]; 0.025 mg/kg): 30% | survival rate ([3]; 0.050 mg/kg): 60% | survival rate (plateau) ([3]; 75, 100, or 200 mg/kg (so in the source)): 80% | survival rate after chronic treatment followed by ischemia ([4]; FIG. 7A): attenuated the effects of brain ischemia | neuronal loss after chronic treatment followed by ischemia ([4]; FIG. 7B): attenuated the effects of brain ischemia | Ki [5]: 210 nM
